In ChEMBL document CHEMBL1201862, “PubChem BioAssay data set” (2004):
Activity calls are given as the source filed them.

What was measured:
[1] = target: Serine/threonine-protein kinase pim-1 (Homo sapiens, UniProt P11309); type: functional
[2] = target: Cell division cycle 7-related protein kinase (Homo sapiens, UniProt O00311); type: functional;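 note: value obtained from a kinome-wide kinase panel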
[3] = target: Homeodomain-interacting protein kinase 2 (Homo sapiens, UniProt Q9H2X6); type: functional;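 note: measured within a kinome-wide kinase profiling panel, HIPK2 being one panel member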
[4] = target: MAP kinase-interacting serine/threonine-protein kinase 2 (Homo sapiens, UniProt Q9HBH9); type: functional
[5] = target: Interleukin-1 receptor-associated kinase 4 (Homo sapiens, UniProt Q9NWZ3); type: functional
[6] = target: T1, Glycogen synthase kinase-3 beta (Homo sapiens, UniProt P49841); type: functional;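 for Ki: value comes from a broad kinome profiling panel, with GSK3B as the panel member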
[7] = target: cAMP-dependent protein kinase catalytic subunit alpha (Homo sapiens, UniProt P17612); type: functional
[8] = target: Dual specificity protein kinase CLK4 (Homo sapiens, UniProt Q9HAZ1); type: functional
[9] = target: Mitogen-activated protein kinase kinase kinase kinase 4 (Homo sapiens, UniProt O95819); type: functional
[10] = target: Glycogen synthase kinase-3 alpha (Homo sapiens, UniProt P49840); assay: Inhibition of Human GSK-3 alpha Activity Measured in Biochemical System Using Microfluidics - 2063-06_Inhibitor_Dose_DryPowder_Activity_Set2. [Related pubchem assays (depositor defined):AID2709]
[11] = target: T1, Glycogen synthase kinase-3 beta; assay: Inhibition of Human GSK-3 beta Activity Measured in Biochemical System Using Microfluidics - 2063-05_Inhibitor_Dose_DryPowder_Activity_Set2. [Related pubchem assays (depositor defined):AID2709]
INS1 = assay: suppression of NO production in INS-1E cells – cell-based, Griess absorbance, dry powder, set 2, dose response (AID 488868); type: functional; settings: Rattus norvegicus
[12] = microbe, parasite or virus in culture; type: functional; settings: Mycobacterium tuberculosis
[13] = target: Heat shock protein HSP 90-alpha (Homo sapiens, UniProt P07900); type: functional, organism-based
[14] = A Cell Based Secondary Assay to Explore Cytotoxicity in THP-1 Cells of Compounds that Modulate Mycobacterium tuberculosis in Media Containing Glycerol versus Media without Glycerol (2).; type: functional
[15] = Vero cell cytotoxicity, cytotoxicity control for M. tuberculosis inhibitor project, purified and synthesized samples, set 3 (AID 504684); type: functional
[16] = A Cell Based Secondary Assay to Explore Cytotoxicity in HepG2 Cells of Compounds that Modulate Mycobacterium tuberculosis in Media Containing Glycerol versus Media without Glycerol (2).; type: functional

T1 sequence (P49841 whole entry): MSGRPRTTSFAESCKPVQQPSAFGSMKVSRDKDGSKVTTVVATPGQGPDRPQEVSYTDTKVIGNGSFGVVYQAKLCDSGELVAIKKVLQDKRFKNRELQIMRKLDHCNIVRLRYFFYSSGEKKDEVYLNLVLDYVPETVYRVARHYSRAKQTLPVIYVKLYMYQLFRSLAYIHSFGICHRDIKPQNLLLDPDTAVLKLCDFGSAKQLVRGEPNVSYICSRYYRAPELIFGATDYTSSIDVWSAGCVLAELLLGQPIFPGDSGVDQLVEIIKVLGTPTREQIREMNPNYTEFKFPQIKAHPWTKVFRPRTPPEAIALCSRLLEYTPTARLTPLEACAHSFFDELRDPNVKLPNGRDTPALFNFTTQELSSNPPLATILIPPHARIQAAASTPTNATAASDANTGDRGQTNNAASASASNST
Mitogen-activated protein kinase kinase kinase kinase 4, sequence (O95819 whole entry): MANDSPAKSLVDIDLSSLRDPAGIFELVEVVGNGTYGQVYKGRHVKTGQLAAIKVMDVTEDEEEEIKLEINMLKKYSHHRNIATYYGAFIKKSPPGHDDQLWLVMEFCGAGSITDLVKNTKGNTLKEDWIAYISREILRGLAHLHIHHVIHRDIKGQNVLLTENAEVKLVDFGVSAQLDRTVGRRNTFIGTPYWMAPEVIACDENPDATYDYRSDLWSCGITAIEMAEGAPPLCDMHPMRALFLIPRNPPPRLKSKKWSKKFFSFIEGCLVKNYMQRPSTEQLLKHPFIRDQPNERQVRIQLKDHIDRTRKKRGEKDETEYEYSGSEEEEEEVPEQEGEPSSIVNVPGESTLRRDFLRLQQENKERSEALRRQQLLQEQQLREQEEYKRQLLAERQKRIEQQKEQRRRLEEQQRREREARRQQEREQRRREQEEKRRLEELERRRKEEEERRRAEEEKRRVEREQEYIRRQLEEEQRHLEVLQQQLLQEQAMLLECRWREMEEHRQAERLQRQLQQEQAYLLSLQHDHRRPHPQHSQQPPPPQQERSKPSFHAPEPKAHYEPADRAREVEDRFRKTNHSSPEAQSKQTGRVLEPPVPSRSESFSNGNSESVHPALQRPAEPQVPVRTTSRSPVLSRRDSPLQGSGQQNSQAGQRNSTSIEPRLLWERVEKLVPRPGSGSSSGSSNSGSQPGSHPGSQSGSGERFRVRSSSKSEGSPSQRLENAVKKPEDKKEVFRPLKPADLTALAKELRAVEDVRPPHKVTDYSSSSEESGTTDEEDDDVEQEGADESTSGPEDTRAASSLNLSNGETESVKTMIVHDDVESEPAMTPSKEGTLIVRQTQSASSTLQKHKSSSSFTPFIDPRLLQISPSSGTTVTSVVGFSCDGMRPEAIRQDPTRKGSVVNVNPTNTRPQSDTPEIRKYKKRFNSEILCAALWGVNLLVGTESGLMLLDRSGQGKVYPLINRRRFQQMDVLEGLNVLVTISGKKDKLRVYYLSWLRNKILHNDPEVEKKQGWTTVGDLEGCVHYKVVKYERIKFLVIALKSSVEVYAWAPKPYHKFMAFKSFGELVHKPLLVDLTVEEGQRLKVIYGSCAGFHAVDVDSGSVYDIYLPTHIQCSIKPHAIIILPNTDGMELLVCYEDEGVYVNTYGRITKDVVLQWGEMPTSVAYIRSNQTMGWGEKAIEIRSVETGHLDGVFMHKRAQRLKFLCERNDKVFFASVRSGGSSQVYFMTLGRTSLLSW
Cell division cycle 7-related protein kinase, sequence (O00311 whole entry): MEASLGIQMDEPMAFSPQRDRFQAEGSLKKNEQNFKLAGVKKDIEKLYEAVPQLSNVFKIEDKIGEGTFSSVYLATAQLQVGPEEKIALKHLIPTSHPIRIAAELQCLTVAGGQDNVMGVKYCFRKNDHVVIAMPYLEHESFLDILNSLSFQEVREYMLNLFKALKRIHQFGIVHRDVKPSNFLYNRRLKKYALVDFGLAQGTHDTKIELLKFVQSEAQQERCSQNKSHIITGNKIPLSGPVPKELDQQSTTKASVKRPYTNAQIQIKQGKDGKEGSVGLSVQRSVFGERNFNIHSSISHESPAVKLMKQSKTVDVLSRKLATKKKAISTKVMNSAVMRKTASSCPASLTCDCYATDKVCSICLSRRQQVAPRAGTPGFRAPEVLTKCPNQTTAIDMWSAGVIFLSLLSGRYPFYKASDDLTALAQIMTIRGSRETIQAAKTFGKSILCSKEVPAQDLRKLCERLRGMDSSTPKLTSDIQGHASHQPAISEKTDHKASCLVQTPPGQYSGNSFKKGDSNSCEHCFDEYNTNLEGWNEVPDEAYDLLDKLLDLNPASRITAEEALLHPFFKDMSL
Dual specificity protein kinase CLK4, sequence (Q9HAZ1 whole entry): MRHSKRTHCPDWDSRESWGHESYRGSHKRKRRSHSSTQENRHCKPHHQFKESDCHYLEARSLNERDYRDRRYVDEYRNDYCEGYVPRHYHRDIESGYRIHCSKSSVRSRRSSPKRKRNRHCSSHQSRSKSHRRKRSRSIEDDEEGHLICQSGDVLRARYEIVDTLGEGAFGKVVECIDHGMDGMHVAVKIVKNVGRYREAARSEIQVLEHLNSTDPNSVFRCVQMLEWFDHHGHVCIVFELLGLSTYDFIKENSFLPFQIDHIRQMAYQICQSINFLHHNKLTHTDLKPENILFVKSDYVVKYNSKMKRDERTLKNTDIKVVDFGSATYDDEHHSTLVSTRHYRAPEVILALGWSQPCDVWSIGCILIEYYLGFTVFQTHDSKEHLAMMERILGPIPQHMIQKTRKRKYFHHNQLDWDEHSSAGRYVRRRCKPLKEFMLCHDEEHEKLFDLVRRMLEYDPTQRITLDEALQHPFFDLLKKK
Interleukin-1 receptor-associated kinase 4, sequence (Q9NWZ3 whole entry): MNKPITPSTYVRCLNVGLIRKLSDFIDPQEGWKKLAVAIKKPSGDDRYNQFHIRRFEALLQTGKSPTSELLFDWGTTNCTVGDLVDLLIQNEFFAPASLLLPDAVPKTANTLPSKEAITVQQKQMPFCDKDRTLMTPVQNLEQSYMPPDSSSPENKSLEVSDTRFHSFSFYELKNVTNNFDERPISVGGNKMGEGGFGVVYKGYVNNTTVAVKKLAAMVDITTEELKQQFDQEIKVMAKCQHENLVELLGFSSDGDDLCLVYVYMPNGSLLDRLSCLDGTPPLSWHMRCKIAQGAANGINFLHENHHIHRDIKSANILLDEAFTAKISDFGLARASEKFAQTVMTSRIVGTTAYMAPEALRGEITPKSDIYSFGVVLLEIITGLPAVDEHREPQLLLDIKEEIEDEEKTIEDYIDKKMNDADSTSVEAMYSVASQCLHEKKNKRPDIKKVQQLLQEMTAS
Homeodomain-interacting protein kinase 2, sequence (Q9H2X6 whole entry): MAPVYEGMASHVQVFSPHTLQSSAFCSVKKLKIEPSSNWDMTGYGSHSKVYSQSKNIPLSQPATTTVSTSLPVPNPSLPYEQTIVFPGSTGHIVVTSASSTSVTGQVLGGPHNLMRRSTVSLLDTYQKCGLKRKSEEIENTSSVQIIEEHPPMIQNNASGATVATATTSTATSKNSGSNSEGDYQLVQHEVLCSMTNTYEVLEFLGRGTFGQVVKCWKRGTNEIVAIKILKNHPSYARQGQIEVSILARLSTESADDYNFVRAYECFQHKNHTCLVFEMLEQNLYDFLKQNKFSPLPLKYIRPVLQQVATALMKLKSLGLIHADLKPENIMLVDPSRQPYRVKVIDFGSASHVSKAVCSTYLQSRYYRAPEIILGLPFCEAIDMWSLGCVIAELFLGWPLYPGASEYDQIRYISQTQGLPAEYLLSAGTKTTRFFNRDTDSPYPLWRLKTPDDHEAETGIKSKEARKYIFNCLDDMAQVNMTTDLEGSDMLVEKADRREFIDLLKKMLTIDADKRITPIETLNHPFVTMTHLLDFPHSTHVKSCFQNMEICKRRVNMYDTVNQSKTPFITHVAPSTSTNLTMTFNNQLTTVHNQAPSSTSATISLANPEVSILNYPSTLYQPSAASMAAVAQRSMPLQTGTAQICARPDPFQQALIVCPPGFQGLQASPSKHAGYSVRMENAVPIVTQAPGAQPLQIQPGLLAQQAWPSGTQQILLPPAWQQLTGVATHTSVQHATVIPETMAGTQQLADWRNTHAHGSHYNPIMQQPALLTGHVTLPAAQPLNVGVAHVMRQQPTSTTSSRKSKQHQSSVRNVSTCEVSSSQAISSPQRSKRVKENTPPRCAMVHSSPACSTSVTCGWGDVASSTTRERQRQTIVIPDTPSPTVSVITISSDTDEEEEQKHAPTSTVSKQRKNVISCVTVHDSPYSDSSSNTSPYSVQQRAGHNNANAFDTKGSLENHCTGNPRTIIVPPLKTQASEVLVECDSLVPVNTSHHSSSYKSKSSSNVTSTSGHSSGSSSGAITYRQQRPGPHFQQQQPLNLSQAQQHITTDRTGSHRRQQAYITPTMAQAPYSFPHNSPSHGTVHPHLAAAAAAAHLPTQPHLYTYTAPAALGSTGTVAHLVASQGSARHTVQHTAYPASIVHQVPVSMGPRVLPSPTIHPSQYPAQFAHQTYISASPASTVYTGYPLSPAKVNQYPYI
Glycogen synthase kinase-3 alpha, sequence (P49840 whole entry): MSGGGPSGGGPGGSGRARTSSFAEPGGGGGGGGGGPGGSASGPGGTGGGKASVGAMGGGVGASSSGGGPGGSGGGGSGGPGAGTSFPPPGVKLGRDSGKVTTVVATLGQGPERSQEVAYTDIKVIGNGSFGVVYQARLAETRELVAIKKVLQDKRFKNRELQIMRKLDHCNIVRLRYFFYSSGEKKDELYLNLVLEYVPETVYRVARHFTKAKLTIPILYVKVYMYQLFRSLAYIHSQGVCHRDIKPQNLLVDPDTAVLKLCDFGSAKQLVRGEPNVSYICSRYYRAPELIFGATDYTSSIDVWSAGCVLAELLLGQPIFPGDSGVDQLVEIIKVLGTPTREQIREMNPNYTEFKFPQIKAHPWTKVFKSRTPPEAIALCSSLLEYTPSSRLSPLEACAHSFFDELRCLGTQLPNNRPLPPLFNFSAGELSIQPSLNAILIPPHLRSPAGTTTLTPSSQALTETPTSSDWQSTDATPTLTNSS

O=c1cc(-c2ccncc2)nc(NCc2cc(F)cc(F)c2)[nH]1
active: Ki [1] 6.31 µM | Ki [2] 0.00631 µM | Ki [3] 0.631 µM | Ki [4] 0.398 µM | Ki [5] 2 µM | Ki [6] 0.2 µM | Ki [7] 6.31 µM | Ki [8] 0.0126 µM | Ki [9] 0.0631 µM

COC(=O)c1nnn(-c2nonc2N)c1CSc1nc2ccccc2s1
active: AC50 [10] 4.24 µM | AC50 [11] 1.31 µM

C[C@@H]1CN([C@@H](C)CO)C(=O)c2cccc(NS(=O)(=O)c3ccccc3)c2O[C@H]1CN(C)Cc1ccc(C(F)(F)F)cc1
active: AC50 (INS1) 242 µM

CCC(C)Nc1ccc(NC(C)CC)cc1 (configuration not stated)
active: CC50 [12] 15.9 µM | AC50 [13] 4.52 µM | CC50 [14] 3.8 µM | CC50 [15] 11.2 µM | CC50 [16] 6.68 µM
